Assays:
[1] = test system: Pgp-expressing KBV1 cells; test: MTT proliferation assay, KBV1 cells; format: cell-based, Human; conditions: 72 h
[2] = test system: non-Pgp expressing KB31 cells; test: MTT proliferation assay, KB31 cells; format: cell-based, Human; conditions: Val 1 μM, Ela 0.1 μM, 72 h
[3] = test system: Pgp expressing 2008/P200A cells; test: MTT proliferation assay, 2008/P200A cells; format: cell-based
Method: The 2008 ovarian carcinoma cell line and the PAC-resistant 2008/P200A cell line (grown in 200 ng/mL of PAC) were kindly provided by Dr. John Allen (Centenary Institute, Sydney, Australia). Cells were grown in Dulbecco's modified Eagle's medium (DMEM; Life Technologies) with 10% (v/v) fetal calf serum (Sigma-Aldrich, St. Louis, Mo.) and supplemented with the following additions from Life Technologies: 1% (v/v) sodium pyruvate, 1% (v/v) non-essential amino acids, 100 U/mL penicillin, 100 μg/mL streptomycin, 2 mM L-glutamine and 0.28 μg/mL fungizone. The cells were then incubated at 37° C. in a humidified atmosphere of 5% CO2 and 95% air.
The effect of anti-cancer agents on cellular proliferation was examined using the MTT [3-(4,5-dimethylthiazol-2-yl)-2,5-diphenyl tetrazolium] method. In this assay, 3×10^3 cells/well were seeded in 96-well plates in 100 μL of media. The next day, serially diluted drugs of interest were added. […] The cells were incubated at 37° C. in a humidified atmosphere containing 5% CO2 and 95% air for 72 h. After this incubation, 10 μL of MIT (5 mg/mL) was added to each well and the incubation continued at 37° C. for 2 h. After solubilization of the cells with 100 μL of 10% SDS-50% isobutanol in 10 mM HCl, the plates were read at 570 nm using a scanning multi-well spectrophotometer (Victor™ Multilabel Counter plate reader; Perkin Elmer, Australia). Results were analyzed to calculate the concentration of chelator or complex necessary to reduce the absorbance to 50% (IC50) of the control.

Pgp = Pgp (Homo sapiens, UniProt P08183); test: Pgp-ATPase activity assay (Pgp-Glo); conditions: 40 min
Method: The ATPase activities of Pgp were determined using Pgp-enriched membranes and a luminescent ATP detection kit (Pgp-Glo Assay Kit, Promega, USA) according to the manufacturer's instructions. Briefly, Pgp membranes (0.5 mg/mL) and Mg(II)-ATP (5 mM) were incubated in the absence or presence of sodium orthovanadate (100 μM) for 40 min/37° C. and ATP detected as a luciferase-generated luminescent signal. Basal Pgp-ATPase activities were determined as the difference between the ATP hydrolysis in the presence or absence of sodium orthovanadate. Verapamil-stimulated Pgp-ATPase activity was measured in the presence of the Pgp control substrate, verapamil (200 μM).
Test substrates (Dp44mT and Bp4eT) of interest were dissolved in dimethyl sulfoxide. The final concentration of DMSO in the assay medium was less than 1%.
The Pgp Glo™ ATPase assay (Promega, Madison, Wis.) was used to assess if Dp44mT and Bp4eT are substrates of Pgp. The ATPase assay measures the Pgp-mediated ATPase activity of Pgp by quantitating ATP consumption in the presence of the compounds of interest after incubation with purified membrane proteins containing high levels of Pgp. […] The basal ATPase activity of Pgp is compared to the ATPase activity stimulated or inhibited by the compounds of interest.

[4] = test system: Pgp over-expressing KBV1 cells; test: Efflux of 14C-Dp44mT, KBV1 cells; format: cell-based, Human
Method: For the uptake assay, each 35 mm culture dish containing 5×10^5 cells was incubated with ^14C-doxorubicin, ^3H-vinblastine or ^14C-Dp44mT (all at 1 μCi) for 30 min/37° C. Cells were then washed on ice three times with ice-cold PBS and collected for analysis. Drug uptake was calculated as the number of drug molecules/cell. […] For studies using lysosomotropic agents, cells were pre-incubated with NH4Cl (5 mM), CLQ (100 μM) or MA (100 μM) for 30 min/37° C. prior to ^14C-Dp44mT uptake. […] For efflux assays, the same labeling procedure was conducted as in the uptake assay. […] After this procedure, the overlying media was removed using a Pasteur pipette and then placed in a counting vial. The cells were removed from the plate in 1 mL of PBS and then dispensed into a separate counting vial. The radiolabeled-drug efflux was calculated as a percentage of the total drug uptake by the cells found at zero time.

[5] = test system: non-Pgp expressing KB31 cells; test: Rhodamine 123 accumulation assay, KB31 cells; format: cell-based, Human; conditions: increased concentrations
Method: Cells were then harvested and resuspended in ice-cold PBS and kept on ice until flow cytometric analysis (see below).
(§1) The dyes, Rh123 and acridine orange were detected with the FACS Canto flow cytometer (BD Biosciences) and 10,000 events were acquired for every sample. Data analysis was performed using FlowJo software, version 7.5.5 (Tree Star Inc., Ashland, OR).

KBV1 cells = test: Lysosomal integrity, acridine orange flow cytometry, KBV1 cells; format: cell-based, Human
Method: Lysotracker® red (Life Technologies) and acridine orange (Sigma-Aldrich) are dyes showing high specificity for lysosomes and were used to determine lysosomal membrane permeability (LMP). The Lysotracker® red was visually assessed by fluorescence microscopy utilizing a Zeiss Axio Observer.Z1 Fluorescence Microscope equipped with an AxioCam camera (Zeiss, Oberkochen, Germany) and acridine orange was quantified by flow cytometry (see below).
Briefly, cells were incubated with Lysotracker® red (50 nM) for 15 min/37° C. or acridine orange (20 nM) for 15 min/37° C., washed on ice 3 times with ice-cold PBS and then incubated with Cu[Dp44mT] (25 μM) for 30 min/37° C. or Dp44mT alone (25 μM) for 30 min or 24 h/37° C.
as §1

[6] = Redox studies: oxidation of H2DCF, cell-free; conditions: acetate buffer pH 5, cysteine, H2O2, over 12 min
Method: These studies were conducted in an acetate buffer (150 mM; pH 5) containing cysteine (100 μM) to mimic lysosomal conditions. In these experiments, hydrogen peroxide (100 μM) was added to initiate ROS generation.

[7] = test system: Pgp-expressing KBV1 cells; conditions: previously reported (ref. 5); cited from earlier work

Chain of Pgp (P08183 whole entry): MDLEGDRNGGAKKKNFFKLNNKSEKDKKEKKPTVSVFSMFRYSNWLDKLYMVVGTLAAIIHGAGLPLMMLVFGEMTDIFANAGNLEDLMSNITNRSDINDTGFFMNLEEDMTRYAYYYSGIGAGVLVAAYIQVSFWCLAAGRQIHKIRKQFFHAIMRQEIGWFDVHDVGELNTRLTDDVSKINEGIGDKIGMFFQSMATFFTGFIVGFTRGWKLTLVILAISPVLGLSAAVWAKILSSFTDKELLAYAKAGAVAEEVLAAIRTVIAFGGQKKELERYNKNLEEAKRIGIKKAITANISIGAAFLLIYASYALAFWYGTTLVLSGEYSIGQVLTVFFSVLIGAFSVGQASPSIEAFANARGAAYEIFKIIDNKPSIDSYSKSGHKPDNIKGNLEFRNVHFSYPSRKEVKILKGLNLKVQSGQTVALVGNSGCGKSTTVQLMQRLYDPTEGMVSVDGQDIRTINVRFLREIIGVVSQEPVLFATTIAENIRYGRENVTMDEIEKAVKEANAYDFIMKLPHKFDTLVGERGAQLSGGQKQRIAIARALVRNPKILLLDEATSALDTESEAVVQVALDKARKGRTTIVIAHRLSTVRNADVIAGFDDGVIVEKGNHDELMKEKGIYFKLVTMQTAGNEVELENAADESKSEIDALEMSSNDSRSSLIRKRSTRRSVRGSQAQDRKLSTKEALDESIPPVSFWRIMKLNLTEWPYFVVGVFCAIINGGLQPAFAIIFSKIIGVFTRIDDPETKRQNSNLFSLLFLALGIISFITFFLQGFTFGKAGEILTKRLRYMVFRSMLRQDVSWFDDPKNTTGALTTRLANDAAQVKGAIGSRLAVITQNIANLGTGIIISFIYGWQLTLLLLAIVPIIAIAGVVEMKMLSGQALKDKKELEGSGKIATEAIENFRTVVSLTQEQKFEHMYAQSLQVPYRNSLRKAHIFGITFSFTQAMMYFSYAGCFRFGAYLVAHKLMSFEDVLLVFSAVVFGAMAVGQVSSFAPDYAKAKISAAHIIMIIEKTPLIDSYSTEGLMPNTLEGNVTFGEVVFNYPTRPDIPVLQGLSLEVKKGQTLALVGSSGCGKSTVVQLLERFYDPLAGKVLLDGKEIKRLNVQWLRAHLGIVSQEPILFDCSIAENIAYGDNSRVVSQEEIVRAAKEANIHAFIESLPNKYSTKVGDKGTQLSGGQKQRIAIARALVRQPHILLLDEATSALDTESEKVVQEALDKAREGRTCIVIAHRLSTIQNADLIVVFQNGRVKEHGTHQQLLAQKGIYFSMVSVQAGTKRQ

For `CN(C)C(=S)NN=C(c1ccccn1)c1ccccn1` [Dp44mT, di-2-pyridylketone 4,4-dimethyl-3-thiosemicarbazone], the “more cytotoxic in drug-resistant KBV1 cells compared to KB31 cells” value [1] was 31 fold, the “change of cytotoxicity in presence of Pgp inhibitors Val or Ela” value (from here on “change … of Pgp inhibitors Val or Ela”) ([1]; KBV1 cells, Val 1 μM, Ela 0.1 μM) was “clear decrease in the cytotoxicity” and the “change … of Pgp inhibitors Val or Ela” value [2] was “did not significantly alter their cytotoxicity”. For the same compound, the “change … of Pgp inhibitors Val or Ela” value ([3]; 2008/P200A cells, Val 1 μM, Ela 0.1 μM) was “significantly (p<0.001) decreased sensitivity”, the “sensitivity of 2008/P200A cells compared to 2008 cells” value ([3]; 72 h) was “significantly (p<0.001) increased sensitivity” and the “stimulation of basal catalytic (ATPase) activity of Pgp” value (Pgp) was 3- to 8 fold. The “efflux in KBV1 cells in comparison to KB31 cells” value ([4]; 1-10 min incubation) was “significantly (p<0.001) higher efflux”, the “effect of Val and Ela on efflux” value ([4]; KBV1 cells, Val 1 μM or Ela 0.1 μM) was “significantly (p<0.01-0.001) suppressed efflux” and the “effect on Rh123 accumulation” value [5] was “did not significantly affect Rh123 accumulation”. For the same compound, the “lysosomal integrity (acridine orange)” value (KBV1 cells; 30 min incubation) was “did not compromise lysosomal integrity”, the “lysosomal integrity (acridine orange)” value (KBV1 cells; KBV1 cells, 25 μM, 24 h) was “decreased lysosomal integrity” and the “lysosomal damage in presence of Val” value (KBV1 cells; KBV1 cells, 24 h, with Pgp inhibitor Val) was “significantly (p<0.01) reduced lysosomal damage”. For the same compound, the “redox activity (H2DCF oxidation)” value [6] was “no activity” and the “cytotoxicity to KBV1 cells relative to KB31 cells” value [7] was “increased cytotoxicity”.

From patent US20150306081A1, “Chemotherapy for Drug-Resistant Cancer Cells” (THE UNIVERSITY OF SYDNEY, priority 2012, published 2015)
